Data reported in patent US12539292B2, “BRM targeting compounds and associated methods of use” (Arvinas Operations, Inc., priority 2018, dated 2026).

Molecular target: T1, BRM (Homo sapiens, UniProt P51531)
T1 construct: In-Cell Western Screen of BRM Degradation in SW1573 Cells; endogenous in cells; host or cells: SW1573
Experiment: In-cell Western screen of BRM degradation in SW1573 cells (Dmax and DC50)
Format: cell-based
Details: for Dmax: SW1573, % degraded, when tested at the top concentration of between 0.3 and 10 μM, read-out: BRM Dmax (%); for DC50: target protein degradation, read-out: BRM DC50
In short: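 SW1573 cells were treated with compound overnight (18-20 h; final DMSO 0.1%), then fixed in 4% PFA, permeabilized with Triton X-100 and blocked. BRM was detected by in-cell Western using 800 nm anti-rabbit and 680 nm anti-mouse secondaries, and Dmax and DC50 were derived from the LI-COR Odyssey signal.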

T1 sequence (P51531 whole entry): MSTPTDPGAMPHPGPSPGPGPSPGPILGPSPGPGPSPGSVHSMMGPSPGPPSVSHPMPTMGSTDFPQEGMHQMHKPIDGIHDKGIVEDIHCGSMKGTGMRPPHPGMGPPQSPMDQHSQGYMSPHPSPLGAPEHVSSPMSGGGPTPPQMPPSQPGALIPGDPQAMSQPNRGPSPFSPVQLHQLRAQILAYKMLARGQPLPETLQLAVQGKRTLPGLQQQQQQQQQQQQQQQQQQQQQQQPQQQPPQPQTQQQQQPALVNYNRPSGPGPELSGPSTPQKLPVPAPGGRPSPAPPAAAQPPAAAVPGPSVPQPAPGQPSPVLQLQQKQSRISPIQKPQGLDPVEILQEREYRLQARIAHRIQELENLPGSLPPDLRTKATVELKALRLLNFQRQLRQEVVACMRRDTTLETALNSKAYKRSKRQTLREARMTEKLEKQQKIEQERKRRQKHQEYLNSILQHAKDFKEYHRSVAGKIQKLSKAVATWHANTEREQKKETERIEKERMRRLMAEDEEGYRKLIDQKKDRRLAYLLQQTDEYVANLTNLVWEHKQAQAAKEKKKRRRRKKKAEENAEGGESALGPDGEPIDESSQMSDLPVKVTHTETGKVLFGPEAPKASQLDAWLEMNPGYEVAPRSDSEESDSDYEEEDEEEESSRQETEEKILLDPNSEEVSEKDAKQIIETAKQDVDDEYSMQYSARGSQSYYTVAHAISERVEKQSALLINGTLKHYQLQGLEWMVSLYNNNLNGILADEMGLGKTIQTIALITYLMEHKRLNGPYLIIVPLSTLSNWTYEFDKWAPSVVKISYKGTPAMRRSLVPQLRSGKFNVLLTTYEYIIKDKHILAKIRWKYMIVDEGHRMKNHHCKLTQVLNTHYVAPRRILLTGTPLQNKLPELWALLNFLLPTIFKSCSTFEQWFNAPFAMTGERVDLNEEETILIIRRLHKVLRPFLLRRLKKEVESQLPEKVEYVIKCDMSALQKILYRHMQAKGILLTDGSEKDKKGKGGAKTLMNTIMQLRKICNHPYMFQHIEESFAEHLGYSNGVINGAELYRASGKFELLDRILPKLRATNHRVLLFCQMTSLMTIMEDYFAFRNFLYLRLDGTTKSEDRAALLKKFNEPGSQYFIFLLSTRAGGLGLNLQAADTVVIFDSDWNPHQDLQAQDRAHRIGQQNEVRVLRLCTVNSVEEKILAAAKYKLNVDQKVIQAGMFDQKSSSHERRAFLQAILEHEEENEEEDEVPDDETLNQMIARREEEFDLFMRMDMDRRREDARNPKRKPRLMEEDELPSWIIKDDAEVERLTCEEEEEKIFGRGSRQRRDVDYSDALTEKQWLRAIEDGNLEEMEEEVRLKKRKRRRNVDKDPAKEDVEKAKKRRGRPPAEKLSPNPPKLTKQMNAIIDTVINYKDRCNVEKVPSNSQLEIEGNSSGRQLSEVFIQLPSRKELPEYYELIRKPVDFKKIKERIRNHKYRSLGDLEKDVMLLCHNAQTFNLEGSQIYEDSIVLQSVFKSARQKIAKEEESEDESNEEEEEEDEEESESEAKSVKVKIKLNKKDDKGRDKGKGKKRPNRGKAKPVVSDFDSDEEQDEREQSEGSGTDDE

| Structure (SMILES) | Dmax | DC50 |
| --- | --- | --- |
| Cc1ncsc1-c1ccc([C@H](C)NC(=O)[C@@H]2C[C@@H](O)CN2C(=O)[C@@H](c2cc(OCCN3CCC(O[C@H]4C[C@H](OCCN5CCOC6(CCN(c7cc(-c8ccccc8O)nnc7N)CC6)C5)C4)CC3)no2)C(C)C)cc1 [compound 359, (2S,4R)-1-((R)-2-(3-(2-(4-((1r,3R)-3-(2-(9-(3-amino-6-(2-hydroxyphenyl)pyridazin-4-yl)-1-oxa-4,9-diazaspiro[5.5]undecan-4-yl)ethoxy)cyclobutoxy)piperidin-1-yl)cthoxy)isoxazol-5-yl)-3-methylbutanoyl)-4-hydroxy-N-((S)-1-(4-(4-methylthiazol-5-yl)phenyl)ethyl)pyrrolidine-2-carboxamide] | > 75% | < 2.5 nM |
| Cc1ncsc1-c1ccc([C@H](C)NC(=O)[C@@H]2C[C@@H](O)CN2C(=O)[C@@H](c2cc(OCCN3C[C@H]4C[C@@H](O[C@H]5C[C@H](Oc6cc(N7C8CCC7CN(c7cc(-c9ccccc9O)nnc7N)C8)ccn6)C5)C[C@H]4C3)no2)C(C)C)cc1 [compound 360, (2S,4R)-1-((2R)-2-(3-(2-((3aR,5R,6aS)-5-((1r,3R)-3-((4-(3-(3-amino-6-(2-hydroxyphenyl)pyridazin-4-yl)-3,8-diazabicyclo[3.2.1]octan-8-yl)pyridin-2-yl)oxy)cyclobutoxy)hexahydrocyclopenta[c]pyrrol-2(1H)-yl)ethoxy)isoxazol-5-yl)-3-methylbutanoyl)-4-hydroxy-N-((S)-1-(4-(4-methylthiazol-5-yl)phenyl)ethyl)pyrrolidine-2-carboxamide] | > 75% | < 2.5 nM |
| Cc1ncsc1-c1ccc([C@H](C)NC(=O)C2C[C@@H](O)CN2C(=O)[C@H](c2onc(OCCN3CCC(O[C@H]4C[C@H](Oc5cc(N6C7CCC6CN(c6cc(-c8ccccc8O)nnc6N)C7)ccn5)C4)CC3)c2Cl)C(C)C)cc1 (stereo partly drawn) [compound 361, (2S,4R)-1-((2S)-2-(3-(2-(4-((1r,3S)-3-((4-(3-(3-amino-6-(2-hydroxyphenyl)pyridazin-4-yl)-3,8-diazabicyclo[3.2.1]octan-8-yl)pyridin-2-yl)oxy)cyclobutoxy)piperidin-1-yl)ethoxy)-4-chloroisoxazol-5-yl)-3-methylbutanoyl)-4-hydroxy-N-((S)-1-(4-(4-methylthiazol-5-yl)phenyl)ethyl)pyrrolidine-2-carboxamide] |  | > 30 nM |
| Cc1ncsc1-c1ccc([C@H](C)NC(=O)C2C[C@@H](O)CN2C(=O)[C@@H](c2onc(OCCN3CCC(O[C@H]4C[C@H](Oc5cc(N6C7CCC6CN(c6cc(-c8ccccc8O)nnc6N)C7)ccn5)C4)CC3)c2Cl)C(C)C)cc1 (stereo partly drawn) [compound 362, (2S,4R)-1-((2R)-2-(3-(2-(4-((1r,3R)-3-((4-(3-(3-amino-6-(2-hydroxyphenyl)pyridazin-4-yl)-3,8-diazabicyclo[3.2.1]octan-8-yl)pyridin-2-yl)oxy)cyclobutoxy)piperidin-1-yl)ethoxy)-4-chloroisoxazol-5-yl)-3-methylbutanoyl)-4-hydroxy-N-((S)-1-(4-(4-methylthiazol-5-yl)phenyl)ethyl)pyrrolidine-2-carboxamide] | > 75% | < 2.5 nM |
| CC(C)[C@H](C(=O)N1C[C@H](O)C[C@H]1C(=O)N[C@@H](C)c1ccc(-c2nncs2)cc1)c1cc(OCCN2CCC(O[C@H]3C[C@H](Oc4cc(N5C6CCC5CN(c5cc(-c7ccccc7O)nnc5N)C6)ccn4)C3)CC2)no1 [compound 363, (2S,4R)-N-((S)-1-(4-(1,3,4-thiadiazol-2-yl)phenyl)ethyl)-1-((2S)-2-(3-(2-(4-((1r,3S)-3-((4-(3-(3-amino-6-(2-hydroxyphenyl)pyridazin-4-yl)-3,8-diazabicyclo[3.2.1]octan-8-yl)pyridin-2-yl)oxy)cyclobutoxy)piperidin-1-yl)ethoxy)isoxazol-5-yl)-3-methylbutanoyl)-4-hydroxypyrrolidine-2-carboxamide] |  | > 30 nM |
| CC(C)[C@@H](C(=O)N1C[C@H](O)C[C@H]1C(=O)N[C@@H](C)c1ccc(-c2nncs2)cc1)c1cc(OCCN2CCC(O[C@H]3C[C@H](Oc4cc(N5C6CCC5CN(c5cc(-c7ccccc7O)nnc5N)C6)ccn4)C3)CC2)no1 [compound 364, (2S,4R)-N-((S)-1-(4-(1,3,4-thiadiazol-2-yl)phenyl)ethyl)-1-((2R)-2-(3-(2-(4-((1r,3R)-3-((4-(3-(3-amino-6-(2-hydroxyphenyl)pyridazin-4-yl)-3,8-diazabicyclo[3.2.1]octan-8-yl)pyridin-2-yl)oxy)cyclobutoxy)piperidin-1-yl)ethoxy)isoxazol-5-yl)-3-methylbutanoyl)-4-hydroxypyrrolidine-2-carboxamide] | > 75% | > 30 nM |
| Cc1ncn(C)c1-c1ccc([C@H](C)NC(=O)[C@@H]2C[C@@H](O)CN2C(=O)[C@H](c2cc(OCCN3CCC(O[C@H]4C[C@H](Oc5cc(N6C7CCC6CN(c6cc(-c8ccccc8O)nnc6N)C7)ccn5)C4)CC3)no2)C(C)C)cc1 [compound 365, (2S,4R)-1-((2S)-2-(3-(2-(4-((1r,3S)-3-((4-(3-(3-amino-6-(2-hydroxyphenyl)pyridazin-4-yl)-3,8-diazabicyclo[3.2.1]octan-8-yl)pyridin-2-yl)oxy)cyclobutoxy)piperidin-1-yl)ethoxy)isoxazol-5-yl)-3-methylbutanoyl)-N-((S)-1-(4-(1,4-dimethyl-1H-imidazol-5-yl)phenyl)ethyl)-4-hydroxypyrrolidine-2-carboxamide] |  | > 30 nM |
| Cc1ncn(C)c1-c1ccc([C@H](C)NC(=O)[C@@H]2C[C@@H](O)CN2C(=O)[C@@H](c2cc(OCCN3CCC(O[C@H]4C[C@H](Oc5cc(N6C7CCC6CN(c6cc(-c8ccccc8O)nnc6N)C7)ccn5)C4)CC3)no2)C(C)C)cc1 [compound 366, (2S,4R)-1-((2R)-2-(3-(2-(4-((1r,3R)-3-((4-(3-(3-amino-6-(2-hydroxyphenyl)pyridazin-4-yl)-3,8-diazabicyclo[3.2.1]octan-8-yl)pyridin-2-yl)oxy)cyclobutoxy)piperidin-1-yl)ethoxy)isoxazol-5-yl)-3-methylbutanoyl)-N-((S)-1-(4-(1,4-dimethyl-1H-imidazol-5-yl)phenyl)ethyl)-4-hydroxypyrrolidine-2-carboxamide] | > 75% | 2.5 to 10 nM |
| Cc1ncsc1-c1ccc([C@H](C)NC(=O)[C@@H]2C[C@@H](O)CN2C(=O)[C@H](c2cc(OCCN3CCC(O[C@H]4C[C@H](Oc5cc(N6C7CCC6CN(c6cc(-c8ccccc8O)nnc6N)C7)ccn5)C4)CC3)no2)C(C)C)nc1 [compound 367, (2S,4R)-1-((2S)-2-(3-(2-(4-((1r,3S)-3-((4-(3-(3-amino-6-(2-hydroxyphenyl)pyridazin-4-yl)-3,8-diazabicyclo[3.2.1]octan-8-yl)pyridin-2-yl)oxy)cyclobutoxy)piperidin-1-yl)ethoxy)isoxazol-5-yl)-3-methylbutanoyl)-4-hydroxy-N-((S)-1-(5-(4-methylthiazol-5-yl)pyridin-2-yl)ethyl)pyrrolidine-2-carboxamide] | > 75% | > 30 nM |
